Experimental data from patent US9242937B2, “Pharmaceutically active disubstituted pyridine derivatives” (Bayer Intellectual Property GmbH, priority 2011, dated 2016).
Each block holds one molecule with its values, some of them ahead of it.

How the values were obtained:
[1] = biological target: T1, CDK2/CyclinA (Homo sapiens, UniProt P24941); test: Lance Ultra KinaSelect Assay, CDK2; type: biochemical; conditions: ULight MBP substrate, ATP 3 μM; read-out: CDK2 LANCE assay (activity range), IC50
T1 construct: purchased Proqinase
Description: This protocol describes how the Lance Ultra KinaSelect Assay was performed to determine half maximal inhibitory concentration (IC50) of compounds of general formula (I) and CDK/Cyclin complexes. The principle behind this enzymatic assay is based upon the phosphorylation of the ULight-Peptide Substrat. It is detected by using a specific EU-labeled anti-phospho peptide antibody. The binding of the Eu-labeled anti-phospho peptide antibody to the phosphorylated ULight labeled peptide gives rise to a FRET-signal. Binding of an inhibitor to the kinase prevents phosphorylation of the ULight-MBP Substrat, resulting in a loss of FRET.
The compounds of general formula (I) summarized in Table 5 were diluted from a 10 mM DMSO stock solution 1:10 in a total volume of 15 μL DMSO. This compound predilution was then serial diluted 1:3 over 8 steps in DMSO and briefly spun down. Each compound solution was now diluted 1:20 in Enzymatic Buffer (HEPES: 50 mM, pH: 7.5; MgCl2: 10 mM; EGTA: 1 mM; DTT: 2 mM; Tween-20: 0.01%), mixed thoroughly and spun down. For every sample, 2 μL of the diluted compound were mixed with 6 μL CDK/Cyclin/Substrat solution and 2 μL ATP solution in a well of a small volume 384 well plate (Corning Incorporated, Corning, N.Y., USA; order no. 3673). The CDK/Cyclin was diluted to the appropriate concentration (see Table 3) and the ATP concentration was adjusted to its […] for the CDK/Cyclin, which was 3 μM for CDK2/Cyclin A, 20 μM for CDK1/Cyclin B1, 25 μM for CDK7/Cyclin H and CDK9/Cyclin T1, 55 μM for CDK6/Cyclin D3, 90 μM for CDK4/Cyclin D1 and 125 μM for CDK9/Cyclin K. For negative controls, in each well 2 μL of DMSO solution (1% final DMSO assay concentration) was mixed with 6 μL substrate solution (50 nM ULight MBP final assay concentration) and 2 μL ATP solution (appropriate final concentration see Table 3). For positive controls, in each well 2 μL of DMSO solution (1% final DMSO assay concentration) was mixed with 6 μL CDK/Cyclin/Substrat (appropriate final concentration see Table 3) and 2 μL Tracer ATP solution (appropriate final concentration see Table 3). Positive and negative controls were calculated from at least 8 different sample wells. The 384 well plates were mixed in a Teleshaker plate mixer (Beckman Coulter, Brea, Calif., USA) at 2000 rpm for 40 sec, and incubated for 1 h at room temperature. Before reading, 10 μL the detection buffer (Lance Detection Buffer 1×; EDTA: […]; Eu-Anti-P-MBP: see Table 3) was added. The FRET signal was measured at 340 nm excitation, 665 nm and 615 nm emission (for the kinase tracer and LanthaScreen Eu-AB, respectively) with an Envision spectrophotometer (Perkin Elmer, Waltham, Mass., USA) with 50 μs delay and 300 μs integration time. IC50 values were determined from the sigmoidal dose response curves with the software Quattro Workflow (Quattro GmbH, Munich, Germany).

[2] = tested on: MDAMB468 cells; test: Cell viability assay, MDAMB468 cells; type: cell-based; conditions: Homo sapiens, MDA-MB-468; 72 h, Cell Titer Glo; read-out: Cell Viability - MDAMB468 cells (activity range), IC50
Description: Hela- or MDAMB468-Cells were maintained in RPMI 1640 or McCoy's 5A cell culture medium+glutamine (PAN Biotech GmbH, Aidenbach, Germany; order no. P04-22100; P04-05500) supplemented with 10% fetal calf serum “Gold” (PAA Laboratories GmbH, Pasching, Austria; order no. A15-151) and grown at 37° C., 5% CO2. For the cell viability assay, cells were seeded with a density of 400 (Hela cells, DSMZ Braunschweig order no. ACC57) or 800 (MDAMB468 cells, ATCC order no. HTB-132) per well in 25 μL in 384-well plates (Greiner Bio-One, Frickenhausen, Germany; order no. 781080). After overnight incubation at 37° C./5% CO2, 25 nL or 75 nL compound were added to each sample well by using BIOMEK FXP Laboratory Automation Workstation (Beckman Coulter, USA). Wells with cells and 0.1% or 0.3% DMSO in culture medium were used as positive controls, wells with cells and 10 μM staurosporine in culture medium were used as negative controls. The cells were incubated with the compounds for 72 h at 37° C./5% CO2. For measurement of cell viability 25 μL Cell Titer Glo reagent (Promega, Madison, USA; order no. G7573), 1:2 diluted with cell culture medium, was added to each well. The 384 well-plates were placed for 2 min on a orbital microplate shaker and incubated for further 10 min at room temperature to stabilize the luminescence signal. Luminescence was measured by Envision Plate Reader (Perkin Elmer, USA). IC50 values were calculated with the software Excel Fit (IDBS, Guildford, UK) from 3-fold dilution series comprising at least 8 concentrations in duplicates.

[3] = tested on: LPS-induced TNF alpha release in PBMCs; test: TNF alpha release assay (LPS-stimulated PBMCs); type: cell-based; conditions: Homo sapiens, PBMC, 1 μg/mL LPS, 6 h, read-out: TNF alpha release (activity range), IC50
Description: Freshly isolated peripheral blood mononuclear cells (PBMCs) were seeded in 96-well cell culture plates with 200,000 cells in 100 μl cell culture medium (DMEM cell culture medium+glutamine from PAN Biotech GmbH, Aidenbach, Germany) supplemented with 10% fetal calf serum (PAA Laboratories GmbH, Pasching, Austria) per well and incubated overnight at 37° C., 5% CO2. To each well, 100 μL cell culture medium with 2× concentrated test compounds diluted from 10 mM DMSO stocks, or 100 μL DMEM with 0.4% DMSO for control wells, was added. The compounds of general formula (I) summarized in Table 6 were used in this assay. After incubation for 1 h at 37° C., 5% CO2, cells were stimulated with 1 μg/mL LPS (Lipopolysaccharides, Sigma, catalog #L4391-1 MG; 1 mg/ml stock solution), or left untreated for negative controls, and plates were incubated for 6 h at 37° C./5% CO2. The cell culture plates were centrifuged at 2000 rpm for 5 minutes, and supernatants were transferred to fresh 96-well polypropylene plates. 25 μL of supernatants were transferred into 96-well-plates of the human TNF alpha-tissue culture kit (Meso Scale Discovery, Gaithersburg, Md., USA), and manufacturer's instructions were followed for analysis of TNF alpha levels. Chemoluminescence was measured in the Mesoscale Sector Imager, and IC50 values were calculated with the software Excel Fit (IDBS, Guildford, UK) from 2-fold dilution series comprising at least 6 concentrations in duplicates.

Compound: COc1ccccc1-c1ccnc(Nc2cccc(S(C)(=O)=O)c2)c1 [Compound F1, 4-(2-Methoxyphenyl)-N-(3-(methylsulfonyl)phenyl)pyridin-2-amine]
IC50 [3]: 1 to 10 µM
IC50 [2]: 1 to 10 µM

Compound: COc1cc(F)ccc1-c1ccnc(Nc2cccc(NC(C)=O)c2)c1 [Compound J2, N-[3-((4-(4-Fluoro-2-methoxyphenyl)pyridin-2-yl)amino)phenyl]-acetamide]
IC50 [1]: 0.1 to 1 µM
IC50 [2]: 1 to 10 µM

Compound: CCCNS(=O)(=O)Cc1cccc(Nc2cc(-c3ccc(F)cc3OC)ccn2)c1 [Compound K1, 1-[3-((4-(4-Fluoro-2-methoxyphenyl)pyridin-2-yl)amino)phenyl]-N-propylmethanesulfonamide]
IC50 [1]: 1 to 10 µM
IC50 [2]: > 10 µM

Compound: COc1ccccc1-c1ccnc(Nc2cccc([N+](=O)[O-])c2)c1 [Compound C1, 4-(2-Methoxyphenyl)-N-(3-nitrophenyl)pyridin-2-amine]
IC50 [3]: 1 to 10 µM
IC50 [2]: > 10 µM

Compound: COc1ccccc1-c1ccnc(Nc2ccccc2)c1 [Compound B1, 4-(2-Methoxyphenyl)-N-phenylpyridin-2-amine]
IC50 [3]: > 10 µM
IC50 [2]: > 10 µM

Compound: COc1cc(F)ccc1-c1ccnc(Nc2cccc(CS(N)(=O)=O)c2)c1 [Compound G1, [3-((4-(4-Fluoro-2-methoxyphenyl)pyridin-2-yl)amino)phenyl]-methanesulfonamide]
IC50 [3]: 0.1 to 1 µM
IC50 [1]: 1 to 10 µM
IC50 [2]: 1 to 10 µM

Now from value to molecule, other results behind:

IC50 [1]: 1 to 10 µM
IC50 [2]: 1 to 10 µM
Compound: COc1cc(F)ccc1-c1ccnc(Nc2cccc(CS(=O)(=O)N(C)C)c2)c1 [Compound G3, 1-[3-((4-(4-Fluoro-2-methoxyphenyl)pyridin-2-yl)amino)phenyl]-N,N-dimethylmethanesulfonamide]

IC50 [1]: < 0.1 µM
IC50 [2]: 1 to 10 µM
Compound: COc1ccccc1-c1ccnc(Nc2ccc(S(N)(=O)=O)cc2)c1 [Compound E1, 4-[(4-(2-Methoxyphenyl)pyridin-2-yl)amino]benzenesulfonamide]
IC50 [3]: 1 to 10 µM

IC50 [1]: 0.1 to 1 µM
IC50 [2]: 1 to 10 µM
Compound: COc1cc(F)ccc1-c1ccnc(Nc2cccc(NS(C)(=O)=O)c2)c1 [Compound J1, N-[3-((4-(4-Fluoro-2-methoxyphenyl)pyridin-2-yl)amino)phenyl]-methanesulfonamide]

IC50 [1]: 0.1 to 1 µM
IC50 [2]: 0.1 to 1 µM
Compound: COc1ccccc1-c1ccnc(Nc2cccc(S(N)(=O)=O)c2)c1 [Compound D1, 3-[(4-(2-Methoxyphenyl)pyridin-2-yl)amino]benzenesulfonamide]
IC50 [3]: 0.1 to 1 µM
